Experimental data from patent publication US20080274522A1, “METHOD FOR THE PRODUCTION OF 2-BUTANONE” (priority 2007, published 2008).
Like-named read-outs stand apart in the source and are kept apart here.

Legend:
E. coli strain MG1655 = details: log-phase
Description: A similar study was done with log-phase cultures of E. coli grown in a defined medium. E. coli strain MG1655 was allowed to grow overnight in MOPS 0.2% glucose medium (Teknova, Half Moon Bay, Calif.) at 42° C. or 28° C. The following day, the cultures were diluted into fresh medium and allowed to grow at the same temperature until in the log phase of growth. […] To these were added 10 μL of the log phase cultures and the tubes were immediately placed in shaking incubators at 42° C. or 28° C. or left on ice for 30 min. […] Then 5 μL of the undiluted treated cultures were spotted on LB agar plates. Subsequent 10-fold serial dilutions of 10^−3, 10^−4, 10^−5 and 10^−6 of the exposed cultures were done by serial pipetting of 20 μL, starting with the 10^−2 dilution cultures, into 180 μL of LB medium in the microplate, using a multi-channel pipette. Prior to each transfer, the cultures were mixed by pipetting up and down six times. Each dilution (5 μL) was spotted onto an LB plate using a multi-channel pipette and allowed to soak into the plate. The plates were inverted and incubated overnight at 37° C. […] Survival of 0% was recorded when no colonies in the spots of the undiluted or any of the serial dilutions were observed.

E. coli (strain MG1655) = details: for % Survival at 30° C. / % Survival at 37° C. / % Survival at 0° C.: 1 h; for Concentration at which E. coli cells were killed: one hour
Description: (§1) Using overnight cultures or cells from plates, 30 mL cultures of the microorganisms to be tested were started in the following culture media: • E. coli—Miller's LB medium (Teknova, Half Moon Bay, Calif.): • L. plantarum PN0512—Lactobacilli MRS Broth (BD Diagnostic Systems, Sparks, Md.). The E. coli and L. plantarum cultures were grown at 37° C. aerobically with shaking until the cultures were in log phase and the OD600 was between 0.6 and 0.8. A 50 μL aliquot of each culture was removed for a time zero sample. The remainder of the cultures was divided into six 5 mL portions and placed in six small incubation flasks or tubes. […] The flasks or tubes were incubated at a desired temperature, aerobically without shaking for 1 h. After the incubation with one of the butanols, 2 μL from each of the flasks (and in addition 2 μL of the time zero sample of the culture before exposure to one of the butanols) were pipetted into the “head” wells of a 96 well (8×12) microtiter plate, each containing 198 μL of LB medium to give a 10^−2 dilution of the culture. Subsequently, 10^−3, 10^−4, 10^−5, and 10^−6 serial dilutions of the cultures were prepared as follows. The 10^−3 dilution was prepared by pipetting 20 μL of the sample from the head well into the 180 μL LB medium in the next well using a multi-channel pipette. This procedure was repeated 3 more times on successive wells to prepare the 10^−4, 10^−5, and 10^−6 dilutions. After each liquid transfer, the solution in the well was mixed by pipetting it up and down 10 times with the multi-channel pipetor. A 5 μL aliquot of each dilution was spotted onto an LB plate using a multi-channel pipette starting with the 10^−6 dilution, then the 10^−5, and so on working from more to less dilute without a change of tips. The spots were allowed to soak into the agar by leaving the lid of the plate slightly open for 15 to 30 min in a sterile transfer hood. The plates were covered, inverted, and incubated overnight at 37° C. The following day, the number of colonies in the spots were counted from the different dilutions. The number of living cells/mL in each of the original culture solutions from which the 2 μL was withdrawn was calculated and compared to the number of cells in the control untreated culture to determine the % of the cells surviving.

[1] = system: L. plantarum (strain PN0512); details: for % Survival at 37° C. / % Survival at 23° C. / % Survival at 0° C.: 1 h; for Concentration at which L. plantarum PN0512 cells were killed: one hour
Description: as §1

[2] = 1-butanol 1.5 % (w/v), grown at 28° C.
[3] = 1-butanol 1.5 % (w/v), grown at 42° C.
[4] = 1-butanol 2.0 % (w/v), grown at 28° C.
[5] = 1-butanol 2.0 % (w/v), grown at 42° C.
[6] = 1-butanol 3.0 % (w/v), grown at 28° C.
[7] = 1-butanol 3.0 % (w/v), grown at 42° C.
[8] = 1-butanol 4.0 % (w/v), grown at 28° C.
[9] = 1-butanol 4.0 % (w/v), grown at 42° C.
[10] = 1-butanol […] (w/v), grown at 42° C.

1-butanol
% survival after 30 min exposure at 42° C. (E. coli strain MG1655; 1-butanol 1.0 % (w/v), grown at 28° C.): 100%
% survival after 30 min exposure at 42° C. (E. coli strain MG1655; 1-butanol 1.0 % (w/v), grown at 42° C.): 100%
% survival after 30 min exposure at 28° C. (E. coli strain MG1655; [2]): 100%
% survival after 30 min exposure at 42° C. (E. coli strain MG1655; [2]): 0%
% survival after 30 min exposure at 28° C. (E. coli strain MG1655; [3]): 100%
% survival after 30 min exposure at 42° C. (E. coli strain MG1655; [3]): 0%
% survival after 30 min exposure at 28° C. (E. coli strain MG1655; [4]): 100%
% survival after 30 min exposure at 42° C. (E. coli strain MG1655; [4]): 0%
% survival after 30 min exposure at 28° C. (E. coli strain MG1655; [5]): 100%
% survival after 30 min exposure at 42° C. (E. coli strain MG1655; [5]): 0%
% survival after 30 min exposure at 28° C. (E. coli strain MG1655; [6]): 0%
% survival after 30 min exposure at 42° C. (E. coli strain MG1655; [6]): 0%
% survival after 30 min exposure at 0° C. (E. coli strain MG1655; 1-butanol 3.0 % (w/v), grown at 29° C.): 100%
% survival after 30 min exposure at 0° C. (E. coli strain MG1655; [7]): 100%
% survival after 30 min exposure at 28° C. (E. coli strain MG1655; [7]): 0%
% survival after 30 min exposure at 42° C. (E. coli strain MG1655; [7]): 0%
% survival after 30 min exposure at 28° C. (E. coli strain MG1655; [8]): 0%
% survival after 30 min exposure at 42° C. (E. coli strain MG1655; [8]): 0%
% survival after 30 min exposure at 0° C. (E. coli strain MG1655; 1-butanol 4.0 % (w/v), grown at 29° C.): 100%
% survival after 30 min exposure at 0° C. (E. coli strain MG1655; [9]): 100%
% survival after 30 min exposure at 28° C. (E. coli strain MG1655; [9]): 0.001%
% survival after 30 min exposure at 42° C. (E. coli strain MG1655; [9]): 0%
% survival after 30 min exposure at 0° C. (E. coli strain MG1655; 1-butanol 5.0 % (w/v), grown at 29° C.): 50%
% survival after 30 min exposure at 0° C. (E. coli strain MG1655; 1-butanol 5.0 % (w/v), grown at 42° C.): 10%
% survival after 30 min exposure at 0° C. (E. coli strain MG1655; 1-butanol 6.0 % (w/v), grown at 29° C.): 1%
% survival after 30 min exposure at 0° C. (E. coli strain MG1655; 1-butanol 6.0 % (w/v), grown at 42° C.): 1%
% survival after 30 min exposure at 42° C. (E. coli strain MG1655; 1-butanol […] (w/v), grown at 28° C.): 0%
% survival after 30 min exposure at 0° C. (E. coli strain MG1655; 1-butanol […] (w/v), grown at 29° C.): 100%
% survival after 30 min exposure at 0° C. (E. coli strain MG1655; [10]): 100%
% survival after 30 min exposure at 42° C. (E. coli strain MG1655; [10]): 0%
Concentration with no toxic effect on E. coli cells (E. coli (strain MG1655); 0° C., one hour treatment): ≤ 4.5 % v/v
% Survival at 30° C. (E. coli (strain MG1655); 1-butanol 1 % v/v): 100%
% Survival at 37° C. (E. coli (strain MG1655); 1-butanol 1 % v/v): 72%
% Survival at 30° C. (E. coli (strain MG1655); 1-butanol 1.5 % v/v): 100%
% Survival at 37° C. (E. coli (strain MG1655); 1-butanol 1.5 % v/v): 20%
% Survival at 30° C. (E. coli (strain MG1655); 1-butanol 2 % v/v): 100%
% Survival at 37° C. (E. coli (strain MG1655); 1-butanol 2 % v/v): 0%
% Survival at 0° C. (E. coli (strain MG1655); 1-butanol 3 % v/v): 100%
% Survival at 30° C. (E. coli (strain MG1655); 1-butanol 3 % v/v): 0%
% Survival at 37° C. (E. coli (strain MG1655); 1-butanol 3 % v/v): 0%
% Survival at 0° C. (E. coli (strain MG1655); 1-butanol 4 % v/v): 100%
% Survival at 0° C. (E. coli (strain MG1655); 1-butanol […] v/v): 100%
% Survival at 37° C. (E. coli (strain MG1655); 1-butanol […] v/v): 0%
Concentration at which E. coli cells were killed (E. coli (strain MG1655); 30° C.): 3 % v/v
Concentration at which E. coli cells were killed (E. coli (strain MG1655); 37° C.): 2 % v/v
Concentration with no toxic effect on L. plantarum PN0512 cells ([1]; 0° C., one hour treatment): ≤ 4.5 % v/v
% Survival at 37° C. ([1]; 1-butanol 1 % v/v): 80%
% Survival at 37° C. ([1]; 1-butanol 1.5 % v/v): 58%
% Survival at 23° C. ([1]; 1-butanol 2 % v/v): 100%
% Survival at 37° C. ([1]; 1-butanol 2 % v/v): 29%
% Survival at 0° C. ([1]; 1-butanol 3 % v/v): 100%
% Survival at 23° C. ([1]; 1-butanol 3 % v/v): 82%
% Survival at 37° C. ([1]; 1-butanol 3 % v/v): 0%
% Survival at 0° C. ([1]; 1-butanol 4 % v/v): 100%
% Survival at 23° C. ([1]; 1-butanol 4 % v/v): 0%
% Survival at 0° C. ([1]; 1-butanol 5 % v/v): 0%
% Survival at 0° C. ([1]; 1-butanol 5.5 % v/v): 0%
% Survival at 0° C. ([1]; 1-butanol […] v/v): 100%
Concentration at which L. plantarum PN0512 cells were killed ([1]; 23° C.): 3.5 % v/v
Concentration at which L. plantarum PN0512 cells were killed ([1]; 37° C.): 2.5 % v/v
